Experimental data: the supplement of paper PMC10307832

How the values were obtained:
Experiment in all cases: relative viability (nuclei count vs DMSO), 5 days (fraction); higher = more cells survive
Selisistat + Pictilisib = compound: C1CC(C2=C(C1)C3=C(N2)C=CC(=C3)Cl)C(=O)N [Selisistat] + CS(=O)(=O)N1CCN(Cc2cc3nc(-c4cccc5[nH]ncc45)nc(N4CCOCC4)c3s2)CC1 [Pictilisib] (partner 1 µM)
Method in brief: (§1)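 After 5 days of treatment, lung cancer cells in 1536-well plates were fixed and stained in a single step (final 0.05% Triton X-100, 1% formaldehyde, 1 ug/ml Hoechst) and their nuclei counted on 4× images. Treatment had been applied by pin tool the day after seeding as one drug alone or as a fixed anchor-drug dose with five library-drug doses (not always all listed) in √10 steps. Relative viability is the nuclei count of treated wells divided by that of vehicle wells, and values are medians of duplicate plates.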

Serdemetan + Foretinib = compound: c1ccc2c(CCNc3ccc(Nc4ccncc4)cc3)c[nH]c2c1 [Serdemetan] + COc1cc2c(Oc3ccc(NC(=O)C4(C(=O)Nc5ccc(F)cc5)CC4)cc3F)ccnc2cc1OCCCN1CCOCC1 [Foretinib] (partner 0.25 µM)
Method in brief: as §1

Serdemetan + Tozasertib = compound: c1ccc2c(CCNc3ccc(Nc4ccncc4)cc3)c[nH]c2c1 [Serdemetan] + Cc1cc(Nc2cc(N3CCN(C)CC3)nc(Sc3ccc(NC(=O)C4CC4)cc3)n2)n[nH]1 [Tozasertib] (partner 0.1 µM)
Method in brief: as §1

Serdemetan + Phenformin = compound: c1ccc2c(CCNc3ccc(Nc4ccncc4)cc3)c[nH]c2c1 [Serdemetan] + N=C(N)NC(=N)NCCc1ccccc1 [Phenformin] (partner 250 µM)
Method in brief: as §1

Serdemetan + Pemetrexed = compound: c1ccc2c(CCNc3ccc(Nc4ccncc4)cc3)c[nH]c2c1 [Serdemetan] + Nc1nc2[nH]cc(CCc3ccc(C(=O)N[C@@H](CCC(=O)O)C(=O)O)cc3)c2c(=O)[nH]1 [Pemetrexed] (partner 0.2 µM)
Method in brief: as §1

## UMC-11
Selisistat + Pictilisib; first compound 0.4 µM
  relative viability: 0.793
Selisistat + Pictilisib; first compound 1.265 µM
  relative viability: 0.784
Selisistat + Pictilisib; first compound 4 µM
  relative viability: 0.618
Selisistat + Pictilisib; first compound 12.65 µM
  relative viability: 0.742
Selisistat + Pictilisib; first compound 40 µM
  relative viability: 0.809
Serdemetan + Foretinib; first compound 0.04 µM
  relative viability: 0.919
Serdemetan + Foretinib; first compound 0.1265 µM
  relative viability: 1.02
Serdemetan + Foretinib; first compound 4 µM
  relative viability: 0.828
Serdemetan + Tozasertib; first compound 0.04 µM
  relative viability: 0.224
Serdemetan + Tozasertib; first compound 0.1265 µM
  relative viability: 0.199
Serdemetan + Tozasertib; first compound 0.4 µM
  relative viability: 0.208
Serdemetan + Tozasertib; first compound 4 µM
  relative viability: 0.233
Serdemetan + Phenformin; first compound 0.04 µM
  relative viability: 0.312
Serdemetan + Phenformin; first compound 0.1265 µM
  relative viability: 0.31
Serdemetan + Phenformin; first compound 4 µM
  relative viability: 0.321
Serdemetan + Pemetrexed; first compound 0.04 µM
  relative viability: 0.776
Serdemetan + Pemetrexed; first compound 0.1265 µM
  relative viability: 0.718
Serdemetan + Pemetrexed; first compound 0.4 µM
  relative viability: 0.689
Serdemetan + Pemetrexed; first compound 1.265 µM
  relative viability: 0.666
Serdemetan + Pemetrexed; first compound 4 µM
  relative viability: 0.586
